Results as given in publication PMC12546632, “The role of cytochrome bc1 inhibitors in future tuberculosis treatment regimens” (Nature Communications, 2025).
Values after ≈ are worked out from the molar mass of the structure shown. Values joined by “and” are separate entries in the source; they are usually repeats but may differ in a detail not shown here. Identical values can stand only once. Like-named read-outs stand apart in the source and are kept apart here.

How the values were obtained:
N1283 clinical isolate = type: cell-based, Mycobacterium tuberculosis; conditions: biological replicates
[1] = system: M. tuberculosis ΔcydAB (Parent); assay: microbe, parasite or virus in culture; type: cell-based; conditions: Mycobacterium tuberculosis
M. tuberculosis HN878 = conditions: telacebec added to BPaC, after 4 weeks of treatment; cited from earlier work
WT H37Rv = type: cell-based, Mycobacterium tuberculosis; conditions: biological replicates

## CCc1nc2ccc(Cl)cn2c1C(=O)NCc1ccc(N2CCC(c3ccc(OC(F)(F)F)cc3)CC2)cc1 [telacebec, reference compound]
N1283 clinical isolate; Conc 8 nM
  CFU counts: 16000000 CFU and 19000000 CFU and 60000000 CFU and 40000000 CFU
N1283 clinical isolate; Conc 32 nM
  CFU counts: 130000 CFU and 900000 CFU and 7000000 CFU and 8000000 CFU
N1283 clinical isolate; Conc 128 nM
  CFU counts: 180000 CFU and 380000 CFU and 120000 CFU and 150000 CFU
[1]
  MIC50: 0.01 µM (≈ 5.57 ng/mL)
M. tuberculosis HN878
  reduction in lung bacterial burden compared to BPaC alone: 2 log
WT H37Rv; Conc 8 nM
  CFU counts: 30000000 CFU and 50000000 CFU
WT H37Rv; Conc 32 nM
  CFU counts: 19000000 CFU and 32000000 CFU and 49500000 CFU
WT H37Rv; Conc 128 nM
  CFU counts: 20000000 CFU and 17000000 CFU and 41500000 CFU and 12000000 CFU
